Values of other authors as cited in US4689323A, “Covalently bound heparin--antithrombin-III complex” (Miles Laboratories, Inc., priority 1983, dated 1987).

Experiments:
[1] = test system: plasma antithrombin-III ("AT-III"); conditions: continuous intravenous infusion, thromboembolic patients
[2] = Scientific Protein Labs., porcine intestines

In the case of heparin sodium, the “decrease in plasma antithrombin-III levels” value [1] is given as “about 35%” and the “anticoagulant activity of the starting heparin” value [2] is given as 167.7 USP units/mg.
